This is an account of results in patent US7678363B2, “Methods of treating psychiatric conditions comprising administration of muscarinic agents in combination with SSRIs” (priority 2005, dated 2010).

Structures can show the parent of a compound that is named as a salt.

Series [1] deals with mGluR2 (Homo sapiens, UniProt Q14416). Conditions: antagonist; read-out: IC50 against mGluR2; cited from earlier work.
Series [2] addresses mGluR3 (Homo sapiens, UniProt Q14832). The conditions noted are these: antagonist; read-out: IC50 against mGluR3; cited from earlier work.
Series [3] deals with Group I and Group III receptors. The conditions noted are these: at sub-mM concentrations; cited from earlier work.
The conditions of series [4]: not told; cited from earlier work.
For series [5], the system named is Human neural stem cells (hNSCs). The series is described as follows: Neuronal differentiation of human neural stem cells (TUJ-1 staining). Conditions: for EC50: read-out: EC50 for neuronal differentiation, agent alone. The format is cell-based. As to the method:
Mitogen-free test media with 5 μM DHEA served as a positive control for neuronal differentiation, and basal media without growth factors served as a negative control.
The presence of synergy was determined by use of a combination index (CI). […] The CI is a quantitative measure of the nature of drug interactions, comparing the EC50's of two compounds, when each is assayed alone, to the EC50 of each compound when assayed in combination. The combination index (CI) is equal to the following formula: […]
where C1 and C2 are the concentrations of a first and a second compound, respectively, resulting in 50% activity in neuronal differentiation when assayed in combination; and IC1 and IC2 are the concentrations of each compound resulting in 50% activity when assayed independently.

The test system of series [6] is mGlu7 and mGlu8. The conditions noted are these: at higher concentrations (e.g., above 1 μM); cited from earlier work.
Series [7] has as its system KA, AMPA, and NMDA iGlu receptors. Conditions: cited from earlier work.
In series [8] the target is human mGlu2 (Homo sapiens, UniProt Q14416). Conditions: read-out: EC50 against human mGlu2 receptors; agonist, in vitro; cited from earlier work.
human mGlu2, sequence (Q14416 19-872): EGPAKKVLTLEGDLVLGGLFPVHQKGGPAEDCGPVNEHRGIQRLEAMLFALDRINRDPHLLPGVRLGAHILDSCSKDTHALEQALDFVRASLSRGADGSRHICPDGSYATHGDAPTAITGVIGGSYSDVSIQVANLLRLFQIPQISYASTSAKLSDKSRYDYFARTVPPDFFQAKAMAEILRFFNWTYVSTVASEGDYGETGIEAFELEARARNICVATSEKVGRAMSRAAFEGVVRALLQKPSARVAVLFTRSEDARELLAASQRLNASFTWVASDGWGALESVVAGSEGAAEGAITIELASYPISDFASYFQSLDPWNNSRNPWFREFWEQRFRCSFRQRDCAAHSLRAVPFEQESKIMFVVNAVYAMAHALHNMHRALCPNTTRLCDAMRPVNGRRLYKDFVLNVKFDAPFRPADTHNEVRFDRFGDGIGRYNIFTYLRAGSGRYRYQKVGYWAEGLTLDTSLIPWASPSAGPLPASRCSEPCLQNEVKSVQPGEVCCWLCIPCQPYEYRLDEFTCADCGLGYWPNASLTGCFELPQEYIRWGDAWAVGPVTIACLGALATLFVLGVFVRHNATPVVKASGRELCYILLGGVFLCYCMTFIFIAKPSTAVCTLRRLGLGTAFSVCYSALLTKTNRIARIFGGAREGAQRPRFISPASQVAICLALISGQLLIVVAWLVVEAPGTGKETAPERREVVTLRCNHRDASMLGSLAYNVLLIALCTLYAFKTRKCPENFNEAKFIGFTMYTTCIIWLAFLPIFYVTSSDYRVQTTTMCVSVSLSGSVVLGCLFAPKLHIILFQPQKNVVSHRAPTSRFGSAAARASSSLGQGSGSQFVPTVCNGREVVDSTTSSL
The target of series [9] is human mGlu3 (Homo sapiens, UniProt Q14832). The conditions noted are these: read-out: EC50 against human mGlu3 receptors; agonist, in vitro; cited from earlier work.
human mGlu3, sequence (Q14832 23-879): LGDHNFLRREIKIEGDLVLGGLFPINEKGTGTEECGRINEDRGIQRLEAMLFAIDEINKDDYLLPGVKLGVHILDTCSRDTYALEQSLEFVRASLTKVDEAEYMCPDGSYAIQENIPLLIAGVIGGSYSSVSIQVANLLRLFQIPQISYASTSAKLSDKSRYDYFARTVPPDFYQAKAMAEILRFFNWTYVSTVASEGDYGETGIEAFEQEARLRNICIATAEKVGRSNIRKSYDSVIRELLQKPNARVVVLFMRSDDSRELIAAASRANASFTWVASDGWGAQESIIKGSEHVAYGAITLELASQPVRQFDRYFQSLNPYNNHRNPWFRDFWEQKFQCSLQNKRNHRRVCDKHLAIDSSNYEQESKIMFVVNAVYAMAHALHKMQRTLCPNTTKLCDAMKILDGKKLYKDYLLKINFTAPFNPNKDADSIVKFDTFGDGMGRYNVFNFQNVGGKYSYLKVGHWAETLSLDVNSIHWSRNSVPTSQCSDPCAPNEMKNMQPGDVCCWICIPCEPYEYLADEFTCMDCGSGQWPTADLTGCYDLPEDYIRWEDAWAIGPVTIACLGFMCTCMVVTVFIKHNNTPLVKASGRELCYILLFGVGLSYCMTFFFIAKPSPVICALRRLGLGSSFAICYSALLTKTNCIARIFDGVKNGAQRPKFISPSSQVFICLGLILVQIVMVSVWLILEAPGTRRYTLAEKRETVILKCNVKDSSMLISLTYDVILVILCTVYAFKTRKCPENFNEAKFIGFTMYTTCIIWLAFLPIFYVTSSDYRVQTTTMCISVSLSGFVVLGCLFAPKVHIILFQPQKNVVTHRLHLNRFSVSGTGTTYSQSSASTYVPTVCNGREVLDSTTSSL
Series [10] concerns Human neural stem cells (hNSCs). The conditions noted are these: maximum of curve.
Series [11] shares this test system. Kind of series: cells. The conditions noted are these: Neural stem cell, read-out: EC50 for astrocyte differentiation.
For series [12] the following is noted: clinical reports; cited from earlier work.
Where [13] appears, read: Homo sapiens, Neural stem cell, agent run independently, percentage of neuronal positive control, basal media values subtracted.
Where [14] appears, read: agent run independently, percentage of neuronal positive control, basal media values subtracted.

mGluR2, sequence (Q14416 19-872): as the sequence (Q14416 19-872) above
mGluR3, sequence (Q14832 23-879): as the sequence (Q14832 23-879) above

For `NC1(C(=O)O)CCc2cc(P(=O)(O)O)ccc21` (racemic) [APICA, (RS)-1-amino-5-phosphonoindan-1-carboxylic acid], the IC50 in series [1] and in [2] was around 30 µM throughout. For the same compound, the “activity against Group I or Group III receptors” value in series [3] was “no appreciable activity”.
As for `CNC(=O)Oc1ccc2c(c1)[C@]1(C)CCN(C)[C@@H]1N2C` (single isomer, unassigned) [Physostigmine, 1,2,3,3a,8,8a-hexahydro-1,3a,8-trimethyl-, methylcarbamate (ester) or (3aS,8aR)-pyrrolo(2,3-b)indol-5-ol], in series [4], the blood-brain barrier permeability result is “capable of crossing the blood-brain barrier”.
As for `NCC(CC(=O)O)c1ccc(Cl)cc1` (stereo not shown) [Baclofen], the EC50 in series [5] (Homo sapiens, Neural stem cell) amounted to 3.6 µM.
`CSc1ccc(C(=O)c2[nH]c(=O)[nH]c2C)cc1` [Enozimone, enoximone]: in series [5] (setting [13]), the half-maximal effective concentration (EC50) stood at 6.76 µM.
Take `N[C@](CC1c2ccccc2Oc2ccccc21)(C(=O)O)[C@H]1C[C@@H]1C(=O)O` [LY341495, (2S)-2-amino-2-(1S,2S-2-carboxycycloprop-1-yl)-3-(xanth-9-yl)propanoic acid]: in [6], the “activity against mGlu7 and mGlu8” value was “antagonist activity”. Further, the “activity against KA, AMPA, and NMDA iGlu receptors” value in [7] was “substantially inactive”.
For `N[C@@]1(C(=O)O)CO[C@H]2[C@H](C(=O)O)[C@H]21` [LY379268, (−)-2-Oxa-4-aminobicyclohexane-4,6-dicarboxylic acid], the EC50 in [8] and in [9] was below 0.01 µM throughout.
For the compound `Clc1ccc2c(c1)N=C(N1CCNCC1)c1ccccc1N2` [N-desmethylclozapine], in series [5] (in assays as disclosed herein (not specified)), the neurogenic activity entry is listed as “highly neurogenic”.
Regarding `COC(=O)C(c1ccccc1)C1CCCCN1` (stereo not shown) [Ritalin, Methylphenidate hydrochloride], the EC50 in [5] (Homo sapiens, Neural stem cell) turned out to be 3.5 µM.
Consider `CN(CCOc1ccc(CC2SC(=O)NC2=O)cc1)c1ccccn1` (stereo not shown) [Rosiglitazone, rosiglitazone], for which the EC50 in series [5] (setting [13]) amounted to 0.94 µM.
Same read-out and setting: the same measure for `Nc1c2c(nc3ccccc13)CCCC2` [Tacrine, tetrahydroaminoacridine]: 8 µM.
Consider `O=C1CC2(CCCC2)CC(=O)N1CCCCN1CCN(c2ncccn2)CC1` [buspirone], for which the EC50 stood at 8.4 µM in [5] (Homo sapiens, Neural stem cell) and 5.7 µM in series [11]. Also, the “maximum astrocyte differentiation, % of the positive control” value in [10] is 60%.
In the case of `C[C@H](CS)C(=O)N1CCC[C@H]1C(=O)O` [captopril], the EC50 in series [5] (setting [13]) was 3.78 µM; in series [5] (setting [14]), 2 µM.
As to `COc1cc2c(cc1OC)C(=O)C(CC1CCN(Cc3ccccc3)CC1)C2` (stereo not shown) [donepezil, 2,3-dihydro-5,6-dimethoxy-2-((1-(phenylmethyl)-4-piperidinyl)methyl)-1H-inden-1-one], the EC50 in series [5] (agent run independently, percentage of neuronal positive control, basal media values subtracted, listed as Donepezil) came out at 2.02 µM; in series [5] (setting [14]), 4.7 µM.
Take `CNCCC(Oc1ccc(C(F)(F)F)cc1)c1ccccc1` (stereo not shown) [fluoxetine]: in [12], the “reported side effects / dose limiting toxicities” value is “sexual dysfunction and (rarely) agitation and increased suicidal thoughts”.
